# Laboratory results: patent US12661342B2, “Heteroaryl compounds and therapeutic uses thereof in conditions associated with the alteration of the activity of beta-glucocerebrosidase” (GT GAIN THERAPEUTICS SA, priority 2019, dated 2026)
# Molecular target: T1, β-glucocerebrosidase (Homo sapiens, UniProt P04062, L483P)
# T1 construct: host or cells: human Gaucher disease patient fibroblasts GM08760A
# T1 sequence (P04062 40-536 L483P): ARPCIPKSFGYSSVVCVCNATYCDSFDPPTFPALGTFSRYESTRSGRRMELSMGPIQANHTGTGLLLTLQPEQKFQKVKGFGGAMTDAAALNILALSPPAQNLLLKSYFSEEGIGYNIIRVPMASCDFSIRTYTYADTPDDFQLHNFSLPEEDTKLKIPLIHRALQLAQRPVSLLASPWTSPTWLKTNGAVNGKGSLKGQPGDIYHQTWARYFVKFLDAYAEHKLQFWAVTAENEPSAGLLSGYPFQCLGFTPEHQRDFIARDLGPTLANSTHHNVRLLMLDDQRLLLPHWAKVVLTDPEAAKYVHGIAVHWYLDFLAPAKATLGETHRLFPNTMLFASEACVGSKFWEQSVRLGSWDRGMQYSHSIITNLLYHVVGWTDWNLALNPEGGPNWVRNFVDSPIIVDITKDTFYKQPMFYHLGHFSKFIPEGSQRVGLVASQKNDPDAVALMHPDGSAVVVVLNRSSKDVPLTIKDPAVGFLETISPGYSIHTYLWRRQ
# Assay: Enhancement of β-glucocerebrosidase activity measured in Gaucher disease fibroblasts (4-MU-β-D-glucopyranoside substrate, intact cells)
# Assay type: cell-based
# Design: key: Increase in comparison with non-treated of >2.0 fold is shown as A; Increase in comparison with non-treated of >1.7-2.0 fold is shown as B; Increase in comparison with non-treated of 1.2-1.7 fold is shown as C; D means that no increase compared with non-treated cells was detected in this method
# Settings: GBA fibroblasts bearing L444P (GM08760A, homozygous p.L444P); compound at concentrations between 6 and 50 μM; 4 days incubation
# Method in brief: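 Patient fibroblasts homozygous for p.L444P (GM08760A), grown in DMEM/10% FBS and exposed to compound for 4 days. Intact cells then given 4-MU-β-D-glucopyranoside in 0.1 M acetate pH 4, 1 h, 37 °C; stopped at pH 10.7, 4-MU fluorescence ex 340/em 460. Value is fold increase over untreated cells; binned at 6–50 μM.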
row,Structure (SMILES),Range: increase in enzyme activity in comparison with non-treated cells (Enzyme activity assay for compounds of Examples 33-141)
1,"Nc1cc(Nc2cccc(F)c2)nc(C(=O)N2CCN(c3ccccc3)CC2)c1 [Example 105, (4-Amino-6-((3-fluorophenyl)amino)pyridin-2-yl)(4-phenylpiperazin-1-yl)methanone]",B (Increase in comparison with non-treated of >1.7-2.0 fold is shown as B)
2,"COc1ccccc1Nc1cc(N)cc(C(=O)N(C)C2Cc3ccccc3C2)n1 [Example 106, 4-Amino-N-(2,3-dihydro-1H-inden-2-yl)-6-((2-methoxyphenyl)amino)-N-methyl-picolinamide]",C (Increase in comparison with non-treated of 1.2-1.7 fold is shown as C)
3,"CN(C(=O)c1cc(N)cc(Nc2cccc(F)c2)n1)C1Cc2ccccc2C1 [Example 107, 4-Amino-N-(2,3-dihydro-1H-inden-2-yl)-6-((3-fluorophenyl)amino)-N-methylpicolinamide]",C (Increase in comparison with non-treated of 1.2-1.7 fold is shown as C)
4,"Cc1c(F)cccc1Nc1cc(N)cc(C(=O)NC2Cc3ccccc3C2)n1 [Example 108, 4-Amino-N-(2,3-dihydro-1H-inden-2-yl)-6-((3-fluoro-2-methylphenyl)amino)picolinamide]",B (Increase in comparison with non-treated of >1.7-2.0 fold is shown as B)
5,"Nc1cc(Nc2cc(F)cc(F)c2)nc(C(=O)NC2Cc3ccccc3C2)c1 [Example 109, 4-Amino-6-((3,5-difluorophenyl)amino)-N-(2,3-dihydro-1H-inden-2-yl)picolinamide]",A (Increase in comparison with non-treated of >2.0 fold is shown as A)
6,"CN(C(=O)c1cc(N)cc(Nc2ccccc2O)n1)c1ccccc1 [Example 110, 4-Amino-6-((2-hydroxyphenyl)amino)-N-methyl-N-phenylpicolinamide]",C (Increase in comparison with non-treated of 1.2-1.7 fold is shown as C)
7,"Nc1cc(Nc2ccccc2F)nc(C(=O)Nc2ccc3c(c2)OCCO3)c1 [Example 111, 4-Amino-N-(2,3-dihydrobenzo[b][1,4]dioxin-6-yl)-6-((2-fluorophenyl)amino)picolinamide]",A (Increase in comparison with non-treated of >2.0 fold is shown as A)
8,"Nc1cc(Nc2cccc(O)c2)nc(C(=O)NC2Cc3ccccc3C2)c1 [Example 112, 4-Amino-N-(2,3-dihydro-1H-inden-2-yl)-6-((3-hydroxyphenyl)amino)picolinamide]",A (Increase in comparison with non-treated of >2.0 fold is shown as A)
9,"COc1ccccc1Nc1cc(N)cc(C(=O)N(C)c2ccccc2)n1 [Example 113, 6-(2-Methoxyphenylamino)-4-amino-N-methyl-N-phenylpyridine-2-carboxamide]",C (Increase in comparison with non-treated of 1.2-1.7 fold is shown as C)
10,"CN(C(=O)c1cc(N)cc(Nc2ccccc2F)n1)c1ccccc1 [Example 114, 4-Amino-6-((2-fluorophenyl)amino)-N-methyl-N-phenylpicolinamide]",D
11,"CN(C(=O)c1cc(N)cc(Nc2cccc(F)c2)n1)c1ccccc1 [Example 115, 6-(3-Fluorophenylamino)-4-amino-N-methyl-N-phenylpyridine-2-carboxamide]",C (Increase in comparison with non-treated of 1.2-1.7 fold is shown as C)
12,"Nc1cc(Nc2cccc(F)c2)nc(C(=O)N2Cc3ccccc3C2)c1 [Example 116, (6-(3-Fluorophenylamino)-4-aminopyridin-2-yl)(isoindolin-2-yl)methanone]",C (Increase in comparison with non-treated of 1.2-1.7 fold is shown as C)
13,"Nc1cc(Nc2cccc3c2OCO3)cc(C(=O)NC2Cc3ccccc3C2)n1 [Example 123, 6-Amino-4-(benzo[d][1,3]dioxol-4-ylamino)-N-(2,3-dihydro-1H-inden-2-yl)picolinamide]",C (Increase in comparison with non-treated of 1.2-1.7 fold is shown as C)
14,"Nc1cc(Nc2ccccc2O)nc(C(=O)N2CCN(c3ccccc3)CC2)n1 [Example 125, (4-Amino-6-((2-hydroxyphenyl)amino)pyrimidin-2-yl)(4-phenylpiperazin-1-yl)methanone]",C (Increase in comparison with non-treated of 1.2-1.7 fold is shown as C)
15,"Nc1nc(Nc2ccccc2O)nc(C(=O)NC2CCc3ccccc3C2)n1 (stereo not drawn) [Example 126, 4-Amino-6-((2-hydroxyphenyl)amino)-N-(1,2,3,4-tetrahydronaphthalen-2-yl)-1,3,5-triazine-2-carboxamide]",C (Increase in comparison with non-treated of 1.2-1.7 fold is shown as C)
16,"Nc1cc(Nc2ccccc2O)cc(C(=O)NC2CCc3ccccc3C2)n1 (stereo not drawn) [Example 127, 6-Amino-4-((2-hydroxyphenyl)amino)-N-(1,2,3,4-tetrahydronaphthalen-2-yl)picolinamide]",B (Increase in comparison with non-treated of >1.7-2.0 fold is shown as B)
17,"CN(C(=O)c1cc(Nc2ccccc2O)cc(N)n1)c1ccccc1 [Example 128, 6-Amino-4-((2-hydroxyphenyl)amino)-N-methyl-N-phenylpicolinamide]",C (Increase in comparison with non-treated of 1.2-1.7 fold is shown as C)
18,"Nc1cc(Nc2ccccc2O)nc(C(=O)NC2Cc3ccccc3C2)c1 [Example 129, 4-Amino-N-(2,3-dihydro-1H-inden-2-yl)-6-((2-hydroxyphenyl)amino)picolinamide]",C (Increase in comparison with non-treated of 1.2-1.7 fold is shown as C)
19,"Nc1nc(Nc2ccccc2O)cc(C(=O)N2CCN(c3ccccc3)CC2)n1 [Example 130, (2-Amino-6-((2-hydroxyphenyl)amino)pyrimidin-4-yl)(4-phenylpiperazin-1-yl)methanone]",C (Increase in comparison with non-treated of 1.2-1.7 fold is shown as C)
20,"CN(C(=O)c1cc(N)cc(Nc2ccccc2O)n1)C1Cc2ccccc2C1.Cl [Example 131, 4-Amino-N-(2,3-dihydro-1H-inden-2-yl)-6-((2-hydroxyphenyl)amino)-N-methyl-picolinamide hydrochloride]",C (Increase in comparison with non-treated of 1.2-1.7 fold is shown as C)
21,"CN(C(=O)c1cc(N)cc(Nc2ccccc2F)n1)C1Cc2ccccc2C1.Cl [Example 132, 4-Amino-N-(2,3-dihydro-1H-inden-2-yl)-6-((2-fluorophenyl)amino)-N-methylpicolinamide hydrochloride]",C (Increase in comparison with non-treated of 1.2-1.7 fold is shown as C)
